Experimental data: US9475817B2 (BRISTOL-MYERS SQUIBB COMPANY, priority 2012, dated 2016)

Experiments:
CK1ε = CK1ε (Homo sapiens (Human), UniProt P49674); assay: CK1ε kinase assay (Caliper LabChip, fluoresceinated peptide substrate); format: biochemical; conditions: 200 pM CK1ε, 50 μM ATP, 1.5 μM peptide substrate, 22 hours room temperature
Experimental: (§1) CK1ε and CK1δ Kinase Assays
(§2) The kinase assay was performed in V-bottom 384-well plates. […] The reaction was incubated at room temperature for 22 hours and terminated by adding 45 μl of 35 mM EDTA to each sample. […] Compounds were dissolved at 10 mM in dimethylsulfoxide (DMSO) and evaluated at eleven concentrations. IC50 values were derived by non-linear regression analysis.

CK1δ = CK1δ (Homo sapiens (Human), UniProt P48730); assay: CK1δ kinase assay (Caliper LabChip, fluoresceinated peptide substrate); format: biochemical; conditions: 200 pM CK1δ, 50 μM ATP, 1.5 μM peptide substrate, 22 hours room temperature
Experimental: as §1, §2

Sequence of CK1δ (P48730 whole entry): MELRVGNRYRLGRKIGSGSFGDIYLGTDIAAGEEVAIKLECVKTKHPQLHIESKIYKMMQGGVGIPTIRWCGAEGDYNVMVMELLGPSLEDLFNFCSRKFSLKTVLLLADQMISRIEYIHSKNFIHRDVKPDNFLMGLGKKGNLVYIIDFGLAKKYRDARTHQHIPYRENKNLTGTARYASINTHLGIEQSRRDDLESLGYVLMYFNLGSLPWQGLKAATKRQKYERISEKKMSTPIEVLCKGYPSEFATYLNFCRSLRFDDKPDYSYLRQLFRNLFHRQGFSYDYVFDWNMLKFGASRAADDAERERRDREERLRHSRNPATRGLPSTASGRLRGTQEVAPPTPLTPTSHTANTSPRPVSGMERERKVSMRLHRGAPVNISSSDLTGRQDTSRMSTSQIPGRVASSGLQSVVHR
Sequence of CK1ε (P49674 whole entry): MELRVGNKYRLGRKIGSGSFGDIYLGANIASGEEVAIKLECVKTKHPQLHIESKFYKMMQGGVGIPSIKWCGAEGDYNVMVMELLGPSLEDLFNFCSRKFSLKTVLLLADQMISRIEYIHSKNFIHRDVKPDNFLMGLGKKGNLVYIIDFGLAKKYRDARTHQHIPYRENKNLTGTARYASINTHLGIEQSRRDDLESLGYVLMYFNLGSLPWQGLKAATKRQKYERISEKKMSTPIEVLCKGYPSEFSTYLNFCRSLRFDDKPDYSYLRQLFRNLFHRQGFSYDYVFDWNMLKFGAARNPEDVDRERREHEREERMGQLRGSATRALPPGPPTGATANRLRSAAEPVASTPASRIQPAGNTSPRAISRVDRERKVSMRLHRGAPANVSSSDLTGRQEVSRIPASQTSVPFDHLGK

Row | SMILES | IC50 (CK1ε) [nM] | IC50 (CK1δ) [nM]
1 | Cn1cc(-c2ccc3nc(NC(=O)c4cc(-c5ccc(F)cc5)ncn4)cn3n2)c(-c2ccc(F)cc2)n1 [Compound 33, 6-(4-fluorophenyl)-N-(6-(3-(4-fluorophenyl)-1-methyl-1H-pyrazol-4-yl)imidazo[1,2-b]pyridazin-2-yl)pyrimidine-4-carboxamide] | 454 | 30.4
2 | Cc1c[nH]nc1C(=O)Nc1cn2nc(-c3cn(C)nc3-c3ccc(F)cc3)ccc2n1 [Compound 34, N-(6-(3-(4-fluorophenyl)-1-methyl-1H-pyrazol-4-yl)imidazo[1,2-b]pyridazin-2-yl)-4-methyl-1H-pyrazol-3-carboxamide] | 18.7 | 3.6
3 | Cn1cc(-c2ccc3nc(NC(=O)c4ccncc4F)cn3n2)c(-c2ccc(F)cc2)n1 [Compound 35, 3-fluoro-N-(6-(3-(4-fluorophenyl)-1-methyl-1H-pyrazol-4-yl)imidazo[1,2-b]pyridazin-2-yl)isonicotinamide] | 9.1 | 2.8
4 | Cn1cc(-c2ccc3nc(NC(=O)c4ncccc4Cl)cn3n2)c(-c2ccc(F)cc2)n1 [Compound 36, 3-chloro-N-(6-(3-(4-fluorophenyl)-1-methyl-1H-pyrazol-4-yl)imidazo[1,2-b]pyridazin-2-yl)picolinamide] | 13.7 | 7.3
5 | Cn1cc(-c2ccc3nc(NC(=O)c4nccs4)cn3n2)c(-c2ccc(F)cc2)n1 [Compound 37, N-(6-(3-(4-fluorophenyl)-1-methyl-1H-pyrazol-4-yl)imidazo[1,2-b]pyridazin-2-yl)thiazole-2-carboxamide] | 116 | 30.5
6 | Cn1cc(-c2ccc3nc(NC(=O)C4CCOCC4)cn3n2)c(-c2ccc(F)cc2)n1 [Compound 40, N-(6-(3-(4-fluorophenyl)-1-methyl-1H-pyrazol-4-yl)imidazo[1,2-b]pyridazin-2-yl)tetrahydro-2H-pyran-4-carboxamide] | 18 | 5.4
7 | Cn1cc(-c2ccc3nc(NC(=O)c4ccc(CO)cc4F)cn3n2)c(-c2ccc(F)cc2)n1 [Compound 41, 2-fluoro-N-(6-(3-(4-fluorophenyl)-1-methyl-1H-pyrazol-4-yl)imidazo[1,2-b]pyridazin-2-yl)-4-(hydroxymethyl)benzamide] | 11.5 | 4
8 | Cn1cc(-c2ccc3nc(NC(=O)c4ccc(Br)cc4F)cn3n2)c(-c2ccc(F)cc2)n1 [Compound 42, 4-bromo-2-fluoro-N-(6-(3-(4-fluorophenyl)-1-methyl-1H-pyrazol-4-yl)imidazo[1,2-b]pyridazin-2-yl)benzamide] | 13.7 | 2.3
9 | Cn1cc(-c2ccc3nc(NC(=O)c4cc(F)cc(F)c4)cn3n2)c(-c2ccc(F)cc2)n1 [Compound 43, 3,5-difluoro-N-(6-(3-(4-fluorophenyl)-1-methyl-1H-pyrazol-4-yl)imidazo[1,2-b]pyridazin-2-yl)benzamide] | 15.8 | 4.8
10 | Cn1cc(-c2ccc3nc(NC(=O)c4ccc(C#N)c(F)c4)cn3n2)c(-c2ccc(F)cc2)n1 [Compound 48, 4-cyano-3-fluoro-N-(6-(3-(4-fluorophenyl)-1-methyl-1H-pyrazol-4-yl)imidazo[1,2-b]pyridazin-2-yl)benzamide] | 23.4 | 5.7
11 | Cn1cc(-c2ccc3nc(NC(=O)c4cc(F)ccc4F)cn3n2)c(-c2ccc(F)cc2)n1 [Compound 51, 2,5-difluoro-N-(6-(3-(4-fluorophenyl)-1-methyl-1H-pyrazol-4-yl)imidazo[1,2-b]pyridazin-2-yl)benzamide] | 22.9 | 6.3
12 | Cn1cc(-c2ccc3nc(NC(=O)c4ccnc(F)c4)cn3n2)c(-c2ccc(F)cc2)n1 [Compound 54, 2-fluoro-N-(6-(3-(4-fluorophenyl)-1-methyl-1H-pyrazol-4-yl)imidazo[1,2-b]pyridazin-2-yl)isonicotinamide] | 14 | 4.5
13 | Cn1cc(-c2ccc3nc(NC(=O)c4ccc(F)c(C#N)c4)cn3n2)c(-c2ccc(F)cc2)n1 [Compound 56, 3-cyano-4-fluoro-N-(6-(3-(4-fluorophenyl)-1-methyl-1H-pyrazol-4-yl)imidazo[1,2-b]pyridazin-2-yl)benzamide] | 44.9 | 14.4
14 | Cn1cc(-c2ccc3nc(NC(=O)c4cc(F)cc(C#N)c4)cn3n2)c(-c2ccc(F)cc2)n1 [Compound 57, 3-cyano-5-fluoro-N-(6-(3-(4-fluorophenyl)-1-methyl-1H-pyrazol-4-yl)imidazo[1,2-b]pyridazin-2-yl)benzamide] | 22.3 | 8.9
15 | Cn1cc(-c2ccc3nc(NC(=O)c4ccc(OC(F)F)cc4F)cn3n2)c(-c2ccc(F)cc2)n1 [Compound 58, 4-(difluoromethoxy)-2-fluoro-N-(6-(3-(4-fluorophenyl)-1-methyl-1H-pyrazol-4-yl)imidazo[1,2-b]pyridazin-2-yl)benzamide] | 40.9 | 6.9

Second part, the compound after the results:

Row | IC50 (CK1ε) [nM] | IC50 (CK1δ) [nM] | SMILES
16 | 43.4 | 10.7 | Cn1cc(-c2ccc3nc(NC(=O)c4ccncn4)cn3n2)c(-c2ccc(F)cc2)n1 [Compound 38, N-(6-(3-(4-fluorophenyl)-1-methyl-1H-pyrazol-4-yl)imidazo[1,2-b]pyridazin-2-yl)pyrimidine-4-carboxamide]
17 | 21.2 | 5.6 | COc1ccc(F)c(C(=O)Nc2cn3nc(-c4cn(C)nc4-c4ccc(F)cc4)ccc3n2)c1 [Compound 44, 2-fluoro-N-(6-(3-(4-fluorophenyl)-1-methyl-1H-pyrazol-4-yl)imidazo[1,2-b]pyridazin-2-yl)-5-methoxybenzamide]
18 | 6.8 | 1.9 | COc1cc(F)cc(C(=O)Nc2cn3nc(-c4cn(C)nc4-c4ccc(F)cc4)ccc3n2)c1 [Compound 45, 3-fluoro-N-(6-(3-(4-fluorophenyl)-1-methyl-1H-pyrazol-4-yl)imidazo[1,2-b]pyridazin-2-yl)-5-methoxybenzamide]
19 | 19.9 | 5.2 | Cn1cc(-c2ccc3nc(NC(=O)c4cc(Cl)ccc4F)cn3n2)c(-c2ccc(F)cc2)n1 [Compound 47, 5-chloro-2-fluoro-N-(6-(3-(4-fluorophenyl)-1-methyl-1H-pyrazol-4-yl)imidazo[1,2-b]pyridazin-2-yl)benzamide]
20 | 13.6 | 6.1 | COc1cc(C(=O)Nc2cn3nc(-c4cn(C)nc4-c4ccc(F)cc4)ccc3n2)ccn1 [Compound 49, N-(6-(3-(4-fluorophenyl)-1-methyl-1H-pyrazol-4-yl)imidazo[1,2-b]pyridazin-2-yl)-2-methoxyisonicotinamide]
21 | 17.8 | 7.6 | Cc1cc(C(=O)Nc2cn3nc(-c4cn(C)nc4-c4ccc(F)cc4)ccc3n2)ccn1 [Compound 52, N-(6-(3-(4-fluorophenyl)-1-methyl-1H-pyrazol-4-yl)imidazo[1,2-b]pyridazin-2-yl)-2-methylisonicotinamide]
22 | 21.4 | 5.8 | Cn1cc(-c2ccc3nc(NC(=O)c4ccc(C#N)nc4)cn3n2)c(-c2ccc(F)cc2)n1 [Compound 53, 6-cyano-N-(6-(3-(4-fluorophenyl)-1-methyl-1H-pyrazol-4-yl)imidazo[1,2-b]pyridazin-2-yl)nicotinamide]
23 | 12.1 | 4.1 | Cn1cc(-c2ccc3nc(NC(=O)c4cc(C#N)ccc4F)cn3n2)c(-c2ccc(F)cc2)n1 [Compound 55, 5-cyano-2-fluoro-N-(6-(3-(4-fluorophenyl)-1-methyl-1H-pyrazol-4-yl)imidazo[1,2-b]pyridazin-2-yl)benzamide]
